Data from patent publication US9969762B2.
Values after ≈ are worked out from the molar mass of the structure shown. Like-named read-outs stand apart in the source and are kept apart here.

Experiments:
[1] = test system: Pectobacterium atrosepticum; assay: Antibacterial activity (MIC and MBC) in TY medium; assay type: cell-based; conditions: 36 h of culture at 30° C.
Fusarium roseum = conditions: compound in methanol, more than 10 days at 20° C.
Description: (§1) The antifungal activity of the N-alkyl-glycosyl(di)amine derivatives of formula (I) and of the N-alkyl-glycamine derivatives of formula (III) synthesized according to the process of the invention was evaluated on two fungi: Fusarium roseum and Fusarium sambucinum.
(§2) For this, 500 μl of solution comprising the test derivative, dissolved in DMSO or methanol, are mixed with 19.5 ml of malt agar medium (Sigma aldrich) allowing the growth of these two Fusarium isolates. The test derivative is prepared in 2 ml of methanol, then mixed with 18 ml of malt agar medium (Sigma aldrich). A spot of 10 μl of culture of each Fusarium is then deposited at the center of each Petri dish. After 10 days of incubation at 20° C., the growth diameters are measured.
(§3) The range of concentrations of N-alkyl-glycosyl(di)amine derivatives of formula (I) tested ranges from 0.1 to 25 μmol/ml.
(§4) The Fusarium growth on media containing the various molecules is compared with that obtained only with DMSO or methanol.
(§5) The same antifungal evaluation protocol as the one previously described with the compound Ij was applied for other N-alkyl-glycosyl(di)amine derivatives of formula (I) and N-alkyl-glycamine derivatives of formula (III) at concentrations ranging from 1 to 20 μmol/ml.
(§6) 2 ml of solution comprising the test compound dissolved in methanol are mixed with 18 ml of agar malt medium (Sigma aldrich) allowing the growth of these two Fusarium isolates. A spot of 10 μl of culture of each Fusarium is then deposited at the center of each Petri dish. After more than 10 days of incubation at 20° C., the growth diameters are measured.

Fusarium sambucinum = conditions: compound in methanol, more than 10 days at 20° C.
Description: as §1, §2, §3, §4, §5, §6

Dickeya dianthicola = assay: Antibacterial activity (MIC and MBC) in TY medium; assay type: cell-based; conditions: Dickeya dianthicola, 36 h of culture at 30° C.
[2] = test system: Agrobacterium tumefaciens; assay: Antibacterial activity (MIC and MBC) in TY medium; assay type: cell-based; conditions: 36 h of culture at 30° C.
[3] = test system: Agrobacterium tumefaciens, Pectobacterium atrosepticum and Dickeya dianthicola bacteria; assay: Antibacterial activity, summary statements over the bacteria tested; assay type: cell-based
Phytophthora infestans = assay: microbe, parasite or virus in culture; assay type: cell-based; conditions: Phytophthora infestans, 144 h, read-out: Average diameters of inhibition zone

For `CCCCCNC1OC(C)[C@H](O)C(O)C1O` (stereo partly shown) [compound Ie], which MIC ([1]; TY medium) is on record?
Its MIC is 16 µg/mL (≈ 68.6 µM).

What about the MBC ([1]; plated on TY agar) of the same compound?
Its MBC is 16 µg/mL (≈ 68.6 µM).

And the “Inhibition of the growth of the Fusarium roseum fungi” value (Fusarium roseum; 1 μmol/ml)?
The value was 94%.

And the “Inhibition of the growth of the Fusarium roseum fungi” value (Fusarium roseum; 2.5 μmol/ml)?
Its value is 96%.

And the “Inhibition of the growth of the Fusarium roseum fungi” value (Fusarium roseum; 5 μmol/ml)?
The value was 100%.

And the “Inhibition of the growth of the Fusarium roseum fungi” value (Fusarium roseum; 10 μmol/ml)?
The value was 100%.

And the “Inhibition of the growth of the Fusarium roseum fungi” value (Fusarium roseum; 20 μmol/ml)?
The value was 100%.

What about the “Inhibition of the growth of the Fusarium sambucinum fungi” value (Fusarium sambucinum; 1 μmol/ml) of the same compound?
The value was 95%.

What about the “Inhibition of the growth of the Fusarium sambucinum fungi” value (Fusarium sambucinum; 2.5 μmol/ml) of the same compound?
Its value is 96%.

What about the “Inhibition of the growth of the Fusarium sambucinum fungi” value (Fusarium sambucinum; 5 μmol/ml) of the same compound?
The value was 100%.

What about the “Inhibition of the growth of the Fusarium sambucinum fungi” value (Fusarium sambucinum; 10 μmol/ml) of the same compound?
The value was 100%.

What about the “Inhibition of the growth of the Fusarium sambucinum fungi” value (Fusarium sambucinum; 20 μmol/ml) of the same compound?
Its value is 100%.

What about the MIC (Dickeya dianthicola; TY medium, read-out: MIC) of the same compound?
The MIC was 16 µg/mL (≈ 68.6 µM).

And the MBC (Dickeya dianthicola; plated on TY agar, read-out: MBC)?
Its MBC is 16 µg/mL (≈ 68.6 µM).

What about the MIC ([2]; TY medium) of the same compound?
Its MIC is 4 µg/mL (≈ 17.1 µM).

And the MBC ([2]; plated on TY agar)?
The MBC was 8 µg/mL (≈ 34.3 µM).

What about the “bactericidal activity (in words)” value [3] of the same compound?
The value was “showed a bactericidal activity”.

What about the “inhibition of the growth of the bacteria (in words)” value ([3]; after 36 h of incubation at 30° C., compared with 4-NPO) of the same compound?
Its value is “inhibition of the growth of the bacteria was observed”.

What about the zone of inhibition at 20000 µg/disc (Phytophthora infestans) of the same compound?
The zone of inhibition at 20000 µg/disc was 21 mm.
